Molecules are shown by their SMILES.

The term melting point denotes the temperature of the solid-liquid transition.

The compound `C[C@H](c1ccc(F)cc1)N1CCN(c2cc(Nc3ccc4cccnc4c3)ncn2)CC1` [Example 4, (6-{4-[(1R)-1-(4-Fluorophenyl)-ethyl]-piperazin-1-yl}-pyrimidin-4-yl)-quinolin-7-yl-amine] returned a melting point of 206 to 207 °C.

The compound `C[C@@H](c1ccc(F)cc1)N1CCN(c2cc(Nc3ccc4cccnc4c3)ncn2)CC1` [Example 5, (6-{4-[(1S)-1-(4-Fluorophenyl)-ethyl]-piperazin-1-yl}-pyrimidin-4-yl)-quinolin-7-yl-amine] came in with a melting point of 206 to 207 °C.

As to `CC(=O)Nc1nc2c(Oc3cc(C4=CCC(C(C)(C)C)CC4)ncn3)cccc2s1` (stereo not drawn) [Example 8, N-{4-[6-(4-tert-Butyl-cyclohex-1-enyl)-pyrimidin-4-yloxy]-benzothiazol-2-yl}-acetamide], the melting point is > 200 °C (dec.).

The record behind these values is US8227469B2, “Vanilloid receptor ligands and their use in treatments” (Amgen Inc., priority 2004, dated 2012).
